Data taken from patent US20070213359A1 (ACADIA Pharmaceuticals Inc., priority 2005, published 2007).
Like-named read-outs stand apart in the source and are kept apart here.

Experiments:
[1] = target: T1, GHSR1a receptor (Homo sapiens, UniProt Q92847); experiment: 125I-Ghrelin binding assay; details: displacement of 125I-ghrelin (0.053 nM), membranes of HEK293 cells transfected with GHSR1a, Cheng-Prussoff, '—' not defined
T1 construct: expressed in transfected cells; host or cells: HEK293 (membranes)
T1 sequence (Q92847 whole entry): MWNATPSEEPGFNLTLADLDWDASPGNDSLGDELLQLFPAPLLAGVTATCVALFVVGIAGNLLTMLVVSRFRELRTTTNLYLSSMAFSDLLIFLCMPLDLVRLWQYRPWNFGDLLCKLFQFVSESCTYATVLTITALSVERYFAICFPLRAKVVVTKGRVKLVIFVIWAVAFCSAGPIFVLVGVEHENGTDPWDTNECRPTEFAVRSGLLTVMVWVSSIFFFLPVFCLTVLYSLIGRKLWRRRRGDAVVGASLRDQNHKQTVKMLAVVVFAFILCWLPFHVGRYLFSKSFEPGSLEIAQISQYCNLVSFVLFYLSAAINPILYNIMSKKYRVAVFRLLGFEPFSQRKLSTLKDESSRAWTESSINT

[2] = target: T2, Ghrelin receptor (Homo sapiens, UniProt Q92847); experiment: Aeg; format: cell-based
Target sequence in this assay (Q92847 whole entry): as above

[3] = target: T2, Ghrelin receptor; experiment: Receptor Selection and Amplification Technology (R-SAT) assay; format: cell-based; set-up: expressed in transfected cells; host or cells: NIH3T3; details: for IC50: '—' not defined (nd used separately), read-out: RSAT pIC50 (converted); for Emax: read-out: RSAT Eff(%)
Target sequence in this assay (Q92847 whole entry): as above

[4] = tested on: fasted, male Sprague-Dawley rats; experiment: Suppression of acute feeding response in fasted rats; format: in vivo, rat; details: intraperitoneal, 30 mg/kg
[5] = target: T2, Ghrelin receptor; experiment: pIC50; set-up: expressed in transfected cells; host or cells: NIH3T3
Excerpt: Table printed on a drawing sheet, Figure 1
First copying reader's note: The table stands under a dose-response plot; chemical names broken over two lines at a hyphen are joined by a blank.
Target sequence in this assay (Q92847 whole entry, looked up): as the sequence (Q92847 whole entry) above

[6] = read-out: Binding pKi (converted)
[7] = negative logarithm of ligand concentration causing 50% inhibition of constitutive receptor response, transfected NIH3T3 cells
[8] = percent inhibition at saturating ligand, normalized to reference ligand Substance P analog = 100%

Row | SMILES | Ki ([1]; Binding pKi) [nM] | IC50 ([3]; […]) [nM] | Emax [3] [%] | Ki [1, 6] [nM] | IC50 [3, 7] [nM] | also measured
1 | COc1cccc2c(C(=O)c3ccccc3)cn(CCCN3CCC(c4nc5ccccc5s4)CC3)c12 | 39.8 | 0.2 | 107 |  |  | IC50 [2]: 63.1 nM
2 | COc1cccc2c(C(=O)C3CC3)cn(CCCN3CCC(Oc4ccc(F)cc4)CC3)c12 | 50.1 | 0.398 | 101 |  |  | IC50 [2]: 39.8 nM
3 | CCCCC1CCN(CCCn2cc(C(C)=O)c3ccccc32)CC1 [1-(1-(3-(4-butylpiperidin-1-yl)propyl)-1H-indol-3-yl)ethanone] |  |  |  |  |  | suppression of feeding [4]: Robust suppression of feeding; IC50 [5]: 158 nM
4 | COc1cccc2c(C(=O)NCC(C)C)cn(CCCN3CCC(Oc4ccc(Cl)cc4)CC3)c12 |  |  | 146 | 50.1 | 3.98 | 
5 | COc1cccc2c(C(=O)NCC(C)C)cn(CCCN3CCCN(Cc4ccc(F)cc4)CC3)c12 | 100 | 25.1 | 118 |  |  | 
6 | CC(=O)c1cn(CCCN2C3CCC2CC(CCc2ccccc2)C3)c2c(C#N)cccc12 (stereo not shown) |  |  | 106 | 39.8 | 7.94 | 
7 | CCc1cccc2c(C(C)=O)cn(CCCN3CCC(Oc4cccc(Cl)c4)CC3)c12 |  |  |  | 31.6 | 1.58 | Emax [3, 8]: 118%
8 | COc1cccc2c(C#N)cn(CCCN3C4CCC3CC(Oc3ccccc3Cl)C4)c12 (stereo not shown) |  |  |  | 631 | 100 | Emax [3, 8]: 114%
9 | CC(=O)c1cn(CCCN2CCC(Oc3ccc(Cl)cc3)CC2)c2ccccc12 |  |  |  | 2510 | 126 | Emax [3, 8]: 104%
10 | COc1cccc2c(C(=O)NCc3cccc(C)c3)cn(CCCN3CCN(CCOc4ccc(Cl)cc4)CC3)c12 | 126 | 501 | 79 |  |  | 
11 | CC(=O)c1cn(CCCN2CCC(Oc3ccc(Cl)cc3)CC2)c2c(C)cccc12 |  |  |  | 2000 | 39.8 | Emax [3, 8]: 101%
12 | CCCCC[C@H]1C[C@H]2CC[C@@H](C1)N2CCCn1cc(C(=O)NCc2cccc(C)c2)c2cccc(OC)c21 | 50.1 | 2 | 90 |  |  | 
13 | COc1cccc2c(C(=O)NCc3cccc(Cl)c3)cn(CCCN3C4CCC3CC(CC(=O)c3ccccc3)C4)c12 (stereo not shown) | 200 | 79.4 | 104 |  |  | 
14 | COc1cccc2c(C(=O)NCc3cccc(C)c3)cn(CCCN3CCCN(CCc4ccccc4)CC3)c12 | 15.8 | 12.6 | 110 |  |  | 
